These results are taken from ChEMBL document CHEMBL1134625 (J Med Chem, 2001).

Broadly, the IC50 is the concentration that inhibits the measured activity by half.

For one test, the target named is T1, Adenosine receptor A3 (Homo sapiens, UniProt P0DMS8).
T1 sequence (P0DMS8 whole entry): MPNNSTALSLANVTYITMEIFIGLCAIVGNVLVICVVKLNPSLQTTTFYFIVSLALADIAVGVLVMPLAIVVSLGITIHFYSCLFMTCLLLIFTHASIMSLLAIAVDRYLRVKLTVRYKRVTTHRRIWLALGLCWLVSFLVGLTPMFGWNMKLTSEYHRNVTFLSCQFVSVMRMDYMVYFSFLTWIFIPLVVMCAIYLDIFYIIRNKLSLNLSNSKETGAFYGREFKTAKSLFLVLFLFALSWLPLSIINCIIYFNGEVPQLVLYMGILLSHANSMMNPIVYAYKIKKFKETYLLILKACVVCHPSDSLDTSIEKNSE

In test [1] the target is 5-hydroxytryptamine receptor 2A (Homo sapiens, UniProt P28223).
Test [2] deals with 5-hydroxytryptamine receptor 7 (Homo sapiens, UniProt P34969).
In test [3] the target is T2, 5-hydroxytryptamine receptor 1A (Homo sapiens, UniProt P08908).
T2 sequence (P08908 whole entry): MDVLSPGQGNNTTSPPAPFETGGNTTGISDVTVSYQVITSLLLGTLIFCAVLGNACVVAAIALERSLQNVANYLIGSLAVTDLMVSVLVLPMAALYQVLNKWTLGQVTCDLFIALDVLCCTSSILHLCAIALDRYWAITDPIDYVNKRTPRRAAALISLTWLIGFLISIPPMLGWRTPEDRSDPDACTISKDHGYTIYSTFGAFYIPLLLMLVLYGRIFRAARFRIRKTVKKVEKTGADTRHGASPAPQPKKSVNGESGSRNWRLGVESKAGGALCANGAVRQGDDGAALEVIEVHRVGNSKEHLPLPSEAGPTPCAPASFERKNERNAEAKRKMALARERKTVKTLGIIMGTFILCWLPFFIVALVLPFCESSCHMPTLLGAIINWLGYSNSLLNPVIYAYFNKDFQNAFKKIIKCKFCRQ

A further test concerns the target T3, D(4) dopamine receptor (Homo sapiens, UniProt P21917).
T3 sequence (P21917 whole entry): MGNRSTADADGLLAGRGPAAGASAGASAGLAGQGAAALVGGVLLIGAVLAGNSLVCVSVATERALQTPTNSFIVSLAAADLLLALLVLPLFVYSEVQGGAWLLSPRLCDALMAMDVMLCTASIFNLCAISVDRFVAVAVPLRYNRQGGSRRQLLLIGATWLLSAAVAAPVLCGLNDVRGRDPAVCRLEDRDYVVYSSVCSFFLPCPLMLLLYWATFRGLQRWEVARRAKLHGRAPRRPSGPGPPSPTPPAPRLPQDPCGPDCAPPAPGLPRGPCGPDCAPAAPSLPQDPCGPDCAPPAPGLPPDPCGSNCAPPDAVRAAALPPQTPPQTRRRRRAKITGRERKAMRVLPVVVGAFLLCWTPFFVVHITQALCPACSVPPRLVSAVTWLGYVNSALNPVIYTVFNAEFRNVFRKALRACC

Another test concerns the target Histamine H1 receptor (Homo sapiens, UniProt P35367).
The target of test [4] is Sodium-dependent dopamine transporter (Homo sapiens, UniProt Q01959).
Test [5] concerns the target Voltage-gated L-type calcium channel (Homo sapiens, UniProt Q13936+Q13698+Q01668+O60840). The test is classed as protein assay.

Sequence of 5-hydroxytryptamine receptor 2A (P28223 whole entry): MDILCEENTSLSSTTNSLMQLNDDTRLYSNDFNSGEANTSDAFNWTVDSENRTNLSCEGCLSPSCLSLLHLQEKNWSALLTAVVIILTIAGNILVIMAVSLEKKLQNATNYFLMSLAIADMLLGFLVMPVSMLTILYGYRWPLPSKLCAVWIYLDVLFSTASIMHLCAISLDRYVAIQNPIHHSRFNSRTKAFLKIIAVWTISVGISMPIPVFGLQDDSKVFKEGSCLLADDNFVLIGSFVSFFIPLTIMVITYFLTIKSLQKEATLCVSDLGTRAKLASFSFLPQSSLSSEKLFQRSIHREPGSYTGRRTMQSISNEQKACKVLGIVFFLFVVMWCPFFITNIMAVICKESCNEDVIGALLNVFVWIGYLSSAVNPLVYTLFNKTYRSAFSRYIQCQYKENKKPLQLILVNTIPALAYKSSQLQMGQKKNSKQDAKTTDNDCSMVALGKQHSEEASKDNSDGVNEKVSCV
Sequence of 5-hydroxytryptamine receptor 7 (P34969 whole entry): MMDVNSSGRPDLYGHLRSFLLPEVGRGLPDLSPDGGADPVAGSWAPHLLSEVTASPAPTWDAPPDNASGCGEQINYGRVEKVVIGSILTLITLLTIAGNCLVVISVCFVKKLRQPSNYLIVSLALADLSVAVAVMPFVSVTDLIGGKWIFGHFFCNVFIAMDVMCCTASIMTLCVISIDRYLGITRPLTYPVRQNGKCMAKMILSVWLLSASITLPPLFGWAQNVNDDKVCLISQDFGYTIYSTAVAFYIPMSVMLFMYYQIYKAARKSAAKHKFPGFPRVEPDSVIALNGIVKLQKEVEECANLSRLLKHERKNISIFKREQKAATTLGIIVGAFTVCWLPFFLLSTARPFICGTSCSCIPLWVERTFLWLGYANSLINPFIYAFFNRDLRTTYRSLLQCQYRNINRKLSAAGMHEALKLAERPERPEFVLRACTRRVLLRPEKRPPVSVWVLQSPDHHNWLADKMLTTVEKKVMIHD
Sequence of Histamine H1 receptor (P35367 whole entry): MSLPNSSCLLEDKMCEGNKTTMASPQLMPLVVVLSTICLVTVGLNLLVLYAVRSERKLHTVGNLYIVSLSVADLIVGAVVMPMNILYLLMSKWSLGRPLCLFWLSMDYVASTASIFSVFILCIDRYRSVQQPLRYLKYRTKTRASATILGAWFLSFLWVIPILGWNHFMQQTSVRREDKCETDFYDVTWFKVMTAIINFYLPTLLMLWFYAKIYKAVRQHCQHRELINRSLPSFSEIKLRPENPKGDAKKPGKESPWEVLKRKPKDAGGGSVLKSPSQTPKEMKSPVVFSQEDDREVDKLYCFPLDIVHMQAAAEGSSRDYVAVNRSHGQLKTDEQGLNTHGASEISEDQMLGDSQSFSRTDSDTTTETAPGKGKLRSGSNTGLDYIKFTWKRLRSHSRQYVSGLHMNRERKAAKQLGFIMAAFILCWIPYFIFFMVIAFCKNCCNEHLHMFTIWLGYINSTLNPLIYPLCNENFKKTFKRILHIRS
Sequence of Sodium-dependent dopamine transporter (Q01959 whole entry): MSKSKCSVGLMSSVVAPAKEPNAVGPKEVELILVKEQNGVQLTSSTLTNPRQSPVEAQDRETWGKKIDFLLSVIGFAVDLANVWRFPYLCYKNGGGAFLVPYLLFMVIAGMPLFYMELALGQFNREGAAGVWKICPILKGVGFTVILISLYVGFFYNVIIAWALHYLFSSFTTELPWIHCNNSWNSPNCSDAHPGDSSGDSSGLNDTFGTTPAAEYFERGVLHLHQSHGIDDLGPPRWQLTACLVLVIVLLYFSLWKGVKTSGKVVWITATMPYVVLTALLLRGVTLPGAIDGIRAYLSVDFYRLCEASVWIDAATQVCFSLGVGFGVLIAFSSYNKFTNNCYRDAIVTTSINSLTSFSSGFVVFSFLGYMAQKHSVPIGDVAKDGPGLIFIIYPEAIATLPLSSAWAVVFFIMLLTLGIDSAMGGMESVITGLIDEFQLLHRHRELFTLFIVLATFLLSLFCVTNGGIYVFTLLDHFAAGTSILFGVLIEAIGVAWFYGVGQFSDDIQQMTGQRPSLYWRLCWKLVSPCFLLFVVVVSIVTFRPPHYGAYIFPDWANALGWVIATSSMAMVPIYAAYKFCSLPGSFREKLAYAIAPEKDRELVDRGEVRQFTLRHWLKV

The molecule `COc1ccc(SCCC(=O)N2CCN(Cc3cccc(Oc4ccc(Cl)cc4)c3)CC2)cc1` gave an IC50 at Adenosine receptor A3 of 3750 nM.

Consider `CCOc1ccc(CCOC(=O)N2CCN(CCCc3ccccc3)CC2)cc1`, for which the results for the IC50 (in test [1]; in test [2]; against Adenosine receptor A3) were 980 nM, 1430 nM and 4180 nM, respectively.

With `N#Cc1ccc(CCOC(=O)N2CCN(CCCc3ccccc3)CC2)cc1`, the IC50 came out at 1570 nM in test [3], 854 nM in test [1], 1410 nM against D(4) dopamine receptor and 280 nM against Histamine H1 receptor.

For the molecule `O=c1[nH]c2ccccc2n(C2CCN(Cc3cc4c(cc3Cl)OCO4)CC2)c1=O`, the IC50 came out at 6550 nM against D(4) dopamine receptor and 1520 nM in test [4].

For `COc1ccc(CN2CCN(C(=O)CCn3cc(C)c4ccccc43)CC2)cc1OCc1ccccc1`, the IC50 against Adenosine receptor A3 was determined as 3730 nM; in test [5], 4840 nM.
